Measurements as given in US20010029347A1, “Transdermal administrating device” (POLYTRONICS, LTD., priority 2000, published 2001).

How the values were obtained:
[1] = design: species or system HWY hairless rats; conditions: HWY hairless, rat, in vivo
Procedure: Transdermal administrating devices were attached on the back of each body of HWY hairless rats. A number of the rats were three a group. The concentration of L-ascorbic acid in blood was chemically detected to control the drug concentration in the blood [M^−]. The procedure thereof is described hereunder.
First, a calibration line was prepared. The EB was set at 1.5 V and the transdermal administrating device was attached on the back of each of the test rats.
In addition, blood examination for the rats was performed at those times. From the blood examination, the concentration of ascorbic acid in blood [M^−] was determined.
Next, using the calibration line shown in FIG. 5, the concentration of ascorbic acid in blood [M^−] was promptly converged to a constant value.
According to the indication from the CPU 6, the bias DC power supply 7 was operated to set EB=8V.
When the concentration of ascorbic acid in blood [M^−] should be maintained at a constant value, for example, at 5 (arb. unit) in FIG. 5, the Rd0 should be 6.3 kΩ (kilo ohm) based on the calibration line shown in FIG. 5.
In this case, when the Rd was determined, the EB was temporarily changed to 1.5 V and the voltage drop Vi at the external load was measured.
At the measurement after the current flowing time has elapsed for 20 minutes, the Rd was lower than the Rd0. The CPU 6 operated to feed back the bias voltage to reduce the bias voltage EB.

[2] = Concentration of Polyoxomethalate ion in blood of nude mouse during iontophoresis with transdermal administrating device V (Example 5, no bias power supply); type: in vivo
Procedure: When the transdermal administrating device V according to Example 5 was loaded on the back of a nude mouse, the chemical cell formed by the active electrode 22 and the inert electrode 24 generated an electromotive force of about 2.9V.
Removing the variable resistor 31 out of the circuit, the measurement and arithmetic operation for Rd and the measurement of the blood concentration in blood [M^−] were performed to prepare a calibration line representing the relationship between the Rd and the [M^−].
Next, a Rd0 value corresponding to a target concentration [M^−]0 was determined from the calibration line and the variable resistor […] was connected to the circuit.
The concentration of drug was controlled by controlling the value of the variable resistor 31 with measuring the Rd at varying times.

Molecule: O=C1O[C@H]([C@@H](O)CO)C(O)=C1O [ascorbic acid, L-ascorbic acid]
- concentration of ascorbic acid in blood [M-], overshoot value [1]: about 6.5 arb. unit
- time after the beginning of flowing a current to converge to constant blood concentration [1]: about 1.5 hours
- concentration of ascorbic acid in blood [M-], converged constant value ([1]; 1.5 hours): ~5 arb. unit

Molecule: K5[SiVW11O40] [Polyoxomethalate ion]
- time after the beginning of flowing a current from which blood concentration [M-] is kept at the target concentration ([2]; control by variable resistor, no bias DC power supply): about 2 hours
- permeability (iontophoresis through skin) ([2]; without bias DC power supply): high permeability
